According to PubChem BioAssay (NCI):
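Tested at 5 concentrations; 48 h exposure; 96-well plates; endpoints linearly interpolated, else capped at highest concentration. GI50 is the concentration that inhibits growth by half. TGI is the concentration that stops growth completely.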

Assays:
Assay in all cases: DTP human tumour cell line panel, 48 h
786-0 renal = tested on: 786-0 renal
A498 renal = tested on: A498 renal
A549 NSCLC = tested on: A549 NSCLC
ACHN renal = tested on: ACHN renal
BT-549 breast = tested on: BT-549 breast
CAKI-1 renal = tested on: CAKI-1 renal
CCRF-CEM leukemia = tested on: CCRF-CEM leukemia
COLO 205 colon = tested on: COLO 205 colon
DU-145 prostate = tested on: DU-145 prostate
EKVX NSCLC = tested on: EKVX NSCLC
HCC-2998 colon = tested on: HCC-2998 colon
HCT-116 colon = tested on: HCT-116 colon
HCT-15 colon = tested on: HCT-15 colon
HL-60(TB) leukemia = tested on: HL-60(TB) leukemia
HOP-62 NSCLC = tested on: HOP-62 NSCLC
HOP-92 NSCLC = tested on: HOP-92 NSCLC
HS 578T breast = tested on: HS 578T breast
HT29 colon = tested on: HT29 colon
IGROV1 ovarian = tested on: IGROV1 ovarian
K-562 leukemia = tested on: K-562 leukemia
KM12 colon = tested on: KM12 colon
LOX IMVI melanoma = tested on: LOX IMVI melanoma
M14 melanoma = tested on: M14 melanoma
MALME-3M melanoma = tested on: MALME-3M melanoma
MCF7 breast = tested on: MCF7 breast
MDA-MB-231 breast = tested on: MDA-MB-231 breast
MDA-MB-435 = tested on: MDA-MB-435
MOLT-4 leukemia = tested on: MOLT-4 leukemia
NCI-H226 lung = tested on: NCI-H226 lung
NCI-H23 lung = tested on: NCI-H23 lung
NCI-H460 lung = tested on: NCI-H460 lung
NCI-H522 lung = tested on: NCI-H522 lung
NCI/ADR-RES ovarian = tested on: NCI/ADR-RES ovarian
OVCAR-3 ovarian = tested on: OVCAR-3 ovarian
OVCAR-4 ovarian = tested on: OVCAR-4 ovarian
OVCAR-5 ovarian = tested on: OVCAR-5 ovarian
OVCAR-8 ovarian = tested on: OVCAR-8 ovarian
PC-3 prostate = tested on: PC-3 prostate
RPMI-8226 leukemia = tested on: RPMI-8226 leukemia
RXF 393 renal = tested on: RXF 393 renal
SF-268 CNS = tested on: SF-268 CNS
SF-539 CNS = tested on: SF-539 CNS
SK-MEL-2 melanoma = tested on: SK-MEL-2 melanoma
SK-MEL-28 melanoma = tested on: SK-MEL-28 melanoma
SK-OV-3 ovarian = tested on: SK-OV-3 ovarian
SN12C renal = tested on: SN12C renal
SNB-19 CNS = tested on: SNB-19 CNS
SNB-75 CNS = tested on: SNB-75 CNS
SW-620 colon = tested on: SW-620 colon
U251 CNS = tested on: U251 CNS
UACC-62 melanoma = tested on: UACC-62 melanoma
UO-31 renal = tested on: UO-31 renal

## COc1cc(F)ccc1-c1ncnc(Nc2cccc(CS(C)(=N)=O)c2)n1 (centres undefined)
786-0 renal
  GI50: 1180 nM
  TGI: > 100000 nM
A498 renal
  GI50: 424 nM
  TGI: 1660 nM
A549 NSCLC
  GI50: 2830 nM
  TGI: > 100000 nM
ACHN renal
  GI50: 476 nM
  TGI: > 100000 nM
BT-549 breast
  GI50: 1070 nM
  TGI: > 100000 nM
CAKI-1 renal
  GI50: 1920 nM
  TGI: > 100000 nM
CCRF-CEM leukemia
  GI50: 447 nM
  TGI: > 100000 nM
COLO 205 colon
  GI50: 400 nM
  TGI: 2180 nM
DU-145 prostate
  GI50: 784 nM
  TGI: > 100000 nM
EKVX NSCLC
  GI50: 1400 nM
  TGI: 37200 nM
HCC-2998 colon
  GI50: 2540 nM
  TGI: > 100000 nM
HCT-116 colon
  GI50: 421 nM
  TGI: > 100000 nM
HCT-15 colon
  GI50: 495 nM
  TGI: > 100000 nM
HL-60(TB) leukemia
  GI50: 392 nM
  TGI: 3140 nM
HOP-62 NSCLC
  GI50: 564 nM
  TGI: 8380 nM
HOP-92 NSCLC
  GI50: 671 nM
  TGI: 4190 nM
HS 578T breast
  GI50: 1210 nM
  TGI: 23900 nM
HT29 colon
  GI50: 642 nM
  TGI: 6390 nM
IGROV1 ovarian
  GI50: 650 nM
  TGI: > 100000 nM
K-562 leukemia
  GI50: 3780 nM
  TGI: > 100000 nM
KM12 colon
  GI50: 561 nM
  TGI: > 100000 nM
LOX IMVI melanoma
  GI50: 373 nM
  TGI: > 100000 nM
M14 melanoma
  GI50: 2250 nM
  TGI: > 100000 nM
MALME-3M melanoma
  GI50: 2730 nM
  TGI: 9660 nM
MCF7 breast
  GI50: 414 nM
  TGI: > 100000 nM
MDA-MB-231 breast
  GI50: 1740 nM
  TGI: > 100000 nM
MDA-MB-435
  GI50: 1550 nM
  TGI: > 100000 nM
MOLT-4 leukemia
  GI50: 2010 nM
  TGI: 7060 nM
NCI-H226 lung
  GI50: 497 nM
  TGI: > 100000 nM
NCI-H23 lung
  GI50: 679 nM
  TGI: 7140 nM
NCI-H460 lung
  GI50: 1790 nM
  TGI: > 100000 nM
NCI-H522 lung
  GI50: 1600 nM
  TGI: 6340 nM
NCI/ADR-RES ovarian
  GI50: 3190 nM
  TGI: > 100000 nM
OVCAR-3 ovarian
  GI50: 450 nM
  TGI: > 100000 nM
OVCAR-4 ovarian
  GI50: 2400 nM
  TGI: > 100000 nM
OVCAR-5 ovarian
  GI50: 827 nM
  TGI: > 100000 nM
OVCAR-8 ovarian
  GI50: 1160 nM
  TGI: > 100000 nM
PC-3 prostate
  GI50: 1280 nM
  TGI: 7700 nM
RPMI-8226 leukemia
  GI50: 3170 nM
  TGI: 61000 nM
RXF 393 renal
  GI50: 239 nM
  TGI: 534 nM
SF-268 CNS
  GI50: 707 nM
  TGI: > 100000 nM
SF-539 CNS
  GI50: 385 nM
  TGI: 2940 nM
SK-MEL-2 melanoma
  GI50: 1080 nM
  TGI: 3470 nM
SK-MEL-28 melanoma
  GI50: 1050 nM
  TGI: > 100000 nM
SK-OV-3 ovarian
  GI50: 2900 nM
  TGI: > 100000 nM
SN12C renal
  GI50: 645 nM
  TGI: > 100000 nM
SNB-19 CNS
  GI50: 1080 nM
  TGI: > 100000 nM
SNB-75 CNS
  GI50: 434 nM
  TGI: 3460 nM
SW-620 colon
  GI50: 673 nM
  TGI: > 100000 nM
U251 CNS
  GI50: 779 nM
  TGI: > 100000 nM
UACC-62 melanoma
  GI50: 361 nM
  TGI: 3400 nM
UO-31 renal
  GI50: 528 nM
  TGI: > 100000 nM
